Measured values: patent publication US20120015907A1, “Furopyridine compounds and uses thereof” (NOVARTIS AG, priority 2010, published 2012)

These compounds were tested against T1, HCV polymerase (Hepatitis C virus genotype 1b, UniProt Q9WMX2) (assay: biochemical). Conditions: NS5B polymerase IC50 μM, polymerase assay of Biological Example 1.
T1 construct: (His)6 (C)

Row | SMILES | IC50
1 | CCOP(C)(=O)CCCCCN(c1nc2oc(-c3ccc(CC)cc3)c(C(=O)NC)c2cc1I)S(C)(=O)=O (stereo not shown) [Example 23.9992, ethyl 5-(N-(2-(4-ethylphenyl)-5-iodo-3-(methylcarbamoyl)furo[2,3-b]pyridin-6-yl)methylsulfonamido)pentyl (methyl)phosphinate] | 0.02 µM

Same assay, conditions: polymerase assay of Biological Example 1; read-out: NS5B polymerase IC50

Row | IC50 | SMILES
2 | 0.037 µM | CNC(=O)c1c(-c2ccc(C)cc2C)oc2nc(N(CCCCC(=O)O)S(C)(=O)=O)c(C3CC3)cc12 [Example 29.99996, 5-(N-(5-cyclopropyl-2-(2,4-dimethylphenyl)-3-(methylcarbamoyl)furo[2,3-b]pyridin-6-yl)methylsulfonamido) pentanoic acid]
3 | 0.005 µM | CNC(=O)c1c(-c2ccc(C)cc2)oc2nc(N(CCCN3CCCC3=O)S(C)(=O)=O)c(C3CC3)cc12 [Example 23.999997, 5-cyclopropyl-N-methyl-6-(N-(3-(2-oxopyrrolidin-1-yl)propyl)methylsulfonamido)-2-p-tolylfuro[2,3-b] pyridine-3-carboxamide]
4 | 0.053 µM | CCc1cc2c(C(=O)NC)c(-c3ccc(F)cc3)oc2nc1N(CCOc1ccc(C(=O)OC)cc1)S(C)(=O)=O [Example 22.7, methyl 4-(2-(N-(5-ethyl-2-(4-fluorophenyl)-3-(methylcarbamoyl)furo[2,3-b]pyridin-6-yl)methylsulfonamido)ethoxy)benzoate]
5 | 0.058 µM | CCc1cc2c(C(=O)NC)c(-c3ccc(F)cc3)oc2nc1N(CCCCS(=O)(=O)c1ccccc1)S(C)(=O)=O [Example 23.8, 5-ethyl-2-(4-fluorophenyl)-N-methyl-6-(N-(4-(phenylsulfonyl)butyl)methylsulfonamido)furo[2,3-b]pyridine-3-carboxamide]
6 | 0.004 µM | CNC(=O)c1c(-c2ccc(C)cc2)oc2nc(N(CCC[C@@H](C)C(=O)N[C@H](C(=O)OC)c3ccccc3)S(C)(=O)=O)c(C3CC3)cc12 [Example 29.99997, (S)-methyl 2-((R)-5-(N-(5-cyclopropyl-3-(methylcarbamoyl)-2-p-tolylfuro[2,3-b]pyridin-6-yl)methylsulfonamido)-2-methylpentanamido)-2-phenylacetate]
7 | 0.004 µM | CNC(=O)c1c(-c2ccc(C)c(C)c2)oc2nc(N(CCCCC(=O)O)S(C)(=O)=O)c(C3CC3)cc12 [Example 29.999998, 5-(N-(5-cyclopropyl-2-(3,4-dimethylphenyl)-3-(methylcarbamoyl)furo[2,3-b]pyridin-6-yl)methylsulfonamido) pentanoic acid]
8 | 0.002 µM | CNC(=O)c1c(-c2ccc(C)cc2)oc2nc(N(CCCC3(C(=O)O)CC3)S(C)(=O)=O)c(C3CC3)cc12 [Example 29.8, 1-(3-(N-(5-cyclopropyl-3-(methylcarbamoyl)-2-p-tolylfuro[2,3-b]pyridin-6-yl)mcthylsulfonamido)propyl) cyclopropanecarboxylic acid]
9 | 0.007 µM | CNC(=O)c1c(-c2ccc(C)cc2)oc2nc(N(CCCCCCC(=O)O)S(C)(=O)=O)c(C3CC3)cc12 [Example 29.996, 7-(N-(5-cyclopropyl-3-(methylcarbamoyl)-2-p-tolylfuro[2,3-b]pyridin-6-yl)methylsulfonamido) heptanoic acid]
10 | 0.297 µM | CN(c1nc2oc(-c3ccc(F)cc3)c(C(N)=O)c2cc1C1CC1)S(C)(=O)=O [Example 2.6]
11 | 0.948 µM | CCc1cc2c(C(=O)NC)c(-c3ccc(F)cc3)oc2nc1N(C[C@@H](C)Cc1ccc(OC)nc1)S(C)(=O)=O [Example 21.6, (S)-5-ethyl-2-(4-fluorophenyl)-6-(N-(3-(6-methoxypyridin-3-yl)-2-methylpropyl)methylsulfonamido)-N-methylfuro[2,3-b]pyridine-3-carboxamide]
12 | 0.132 µM | CNC(=O)c1c(-c2ccc(F)cc2)oc2nc(N(C)S(C)(=O)=O)c(CCCC(N)=O)cc12 [Example 4.3, 5-(4-amino-4-oxobutyl)-2-(4-fluorophenyl)-N-methyl-6-(N-methylmethylsulfonamido)furo[2,3-b]pyridine-3-carboxamide]
13 | 0.223 µM | CNC(=O)c1c(-c2ccc(F)cc2)oc2nc(N(C)S(C)(=O)=O)c(CCCC(O)CO)cc12 (stereo not shown) [Example 4.92, 5-(4,5-dihydroxypentyl)-2-(4-fluorophenyl)-N-methyl-6-(N-methylmethylsulfonamido)furo[2,3-b]pyridine-3-carboxamide]
14 | 0.004 µM | CNC(=O)c1c(-c2ccc(C)cc2)oc2nc(N(CCCCCCCC(=O)O)S(C)(=O)=O)c(C3CC3)cc12 [Example 29.991, 8-(N-(5-cyclopropyl-3-(methylcarbamoyl)-2-p-tolylfuro[2,3-b]pyridin-6-yl)methylsulfonamido) octanoic acid]
15 | 0.004 µM | CNC(=O)c1c(-c2ccc(C)cc2)oc2nc(N(CCC3CCCC3C(=O)O)S(C)(=O)=O)c(I)cc12 (stereo not shown) [Example 18.999, 2-(2-(N-(5-iodo-3-(methylcarbamoyl)-2-p-tolylfuro[2,3-b]pyridin-6-yl)methylsulfonamido)ethyl)cyclopentanecarboxylic acid]
16 | 0.2 µM | CNC(=O)c1c(-c2ccc(F)cc2)oc2nc(N(C)S(C)(=O)=O)c(CCCC(=O)N3CCC[C@H]3C(N)=O)cc12 [Example 4.4, (S)-5-(4-(2-carbamoylpyrrolidin-1-yl)-4-oxobutyl)-2-(4-fluorophenyl)-N-methyl-6-(N-methylmethylsulfonamido)furo[2,3-b]pyridine-3-carboxamide]
17 | 0.071 µM | CNC(=O)c1c(-c2ccc(C)cc2C)oc2nc(N(C)S(C)(=O)=O)c(C3CC3)cc12 [Example 2.99, 5-cyclopropyl-2-(2,4-dimethylphenyl)-N-methyl-6-(N-methylmethylsulfonamido)furo[2,3-b]pyridine-3-carboxamide]
18 | 0.002 µM | CNC(=O)c1c(-c2ccc(C)cc2)oc2nc(N(CCCC(C)C(=O)O)S(C)(=O)=O)c(C3CC3)cc12 (stereo not shown) [Example 29.9994, 5-(N-(5-cyclopropyl-3-(methylcarbamoyl)-2-p-tolylfuro[2,3-b]pyridin-6-yl)methylsulfonamido)-2-methylpentanoic acid]
19 | 0.003 µM | C=CCN(c1nc2oc(-c3ccc(C)cc3)c(C(=O)NC)c2cc1C1CC1)S(C)(=O)=O [Example 29.97, 6-(N-allylmethylsulfonamido)-5-cyclopropyl-N-methyl-2-p-tolylfuro[2,3-b]pyridine-3-carboxamide]
20 | 0.033 µM | CCc1cc2c(C(=O)NC)c(-c3ccc(F)cc3)oc2nc1N(CCOCCN1C(=O)NC(C)(C)C1=O)S(C)(=O)=O [Example 22.4, 6-(N-(2-(2-(4,4-dimethyl-2,5-dioxoimidazolidin-1-yl)ethoxy)ethyl)methylsulfonamido)-5-ethyl-2-(4-fluorophenyl)-N-methylfuro[2,3-b]pyridine-3-carboxamide]
21 | 0.003 µM | CNC(=O)c1c(-c2ccc(C)cc2)oc2nc(N(CCCC(C)(CCOC)C(=O)O)S(C)(=O)=O)c(C3CC3)cc12 (stereo not shown) [Example 42.1, 5-(N-(5-cyclopropyl-3-(methylcarbamoyl)-2-p-tolylfuro[2,3-b]pyridin-6-yl)methylsulfonamido)-2-(2-methoxyethyl)-2-methylpentanoic acid]
22 | 0.573 µM | CNC(=O)c1c(-c2ccc(F)cc2)oc2nc(N(CCc3ccccc3OC)S(C)(=O)=O)c(I)cc12 [Example 18.6, 2-(4-fluorophenyl)-5-iodo-6-(N-(2-methoxyphenethyl)methylsulfonamido)-N-methylfuro[2,3-b]pyridine-3-carboxamide]
23 | 0.147 µM | CCc1cc2c(C(=O)NC)c(-c3ccc(F)cc3)oc2nc1N(CC1CCOCC1)S(C)(=O)=O [Example 21.994, 5-ethyl-2-(4-fluorophenyl)-N-methyl-6-(N-((tetrahydro-2H-pyran-4-yl)methyl)methylsulfonamido)furo[2,3-b]pyridine-3-carboxamide]
24 | 0.007 µM | CNC(=O)c1c(-c2ccc(C)cc2)oc2nc(N(CCCCCCCCC(=O)O)S(C)(=O)=O)c(C3CC3)cc12 [Example 29.992, 9-(N-(5-cyclopropyl-3-(methylcarbamoyl)-2-p-tolylfuro[2,3-b]pyridin-6-yl)methylsulfonamido) nonanoic acid]
25 | 0.532 µM | CNC(=O)c1c(-c2ccc(F)cc2)oc2nc(N(C)S(C)(=O)=O)c(CCCN)cc12 [Example 15, 5-(3-aminopropyl)-2-(4-fluorophenyl)-N-methyl-6-(N-methylmethylsulfonamido)furo[2,3-b]pyridine-3-carboxamide]
26 | 0.003 µM | CNC(=O)c1c(-c2ccc(C)cc2)oc2nc(N(CCCC(O)C(C)(C)C(=O)O)S(C)(=O)=O)c(C3CC3)cc12 (stereo not shown) [Example 50, 6-(N-(5-cyclopropyl-3-(methylcarbamoyl)-2-p-tolylfuro[2,3-b]pyridin-6-yl)methylsulfonamido)-3-hydroxy-2,2-dimethylhexanoic acid]
27 | 0.002 µM | CCc1ccc(-c2oc3nc(N(CCCC(C)C(=O)O)S(C)(=O)=O)c(C4CC4)cc3c2C(=O)NC)cc1 (stereo not shown) [Example 29.9995, 5-(N-(5-cyclopropyl-2-(4-ethylphenyl)-3-(methylcarbamoyl)furo[2,3-b]pyridin-6-yl)methylsulfonamido)-2-methylpentanoic acid]
28 | 0.113 µM | CNC(=O)c1c(-c2ccc(F)cc2)oc2nc(N(C)S(C)(=O)=O)c(CCCCC(=O)N3CCC[C@H]3C(=O)OC)cc12 [Example 4.6, (S)-methyl 1-(5-(2-(4-fluorophenyl)-3-(methylcarbamoyl)-6-(N-methylmethylsulfonamido)furo[2,3-b]pyridin-5-yl)pentanoyl)pyrrolidine-2-carboxylate]
